Measured values taken from the NIST ThermoML archive (doi:10.1021/je020125e).

Conditions: 101.33 kPa, Liquid, Hot wire method

CCCCCC(C)C [2-methylheptane]
Conditions	thermal conductivity [W/m/K]	thermal diffusivity [m2/s]
259.12 K	0.1244	–
259.33 K	0.1242	–
259.51 K	0.1242	–
260.04 K	–	8.23e-08
260.63 K	–	8.22e-08
261.12 K	–	8.22e-08
277.53 K	0.1195	–
277.77 K	0.1194	–
277.96 K	0.1193	–
278.48 K	–	7.83e-08
279.11 K	–	7.84e-08
279.63 K	–	7.81e-08
295.72 K	0.1145	–
295.95 K	0.1144	–
296.16 K	0.1143	–
296.69 K	–	7.41e-08
297.31 K	–	7.42e-08
297.85 K	–	7.39e-08
313.83 K	0.1097	–
314.07 K	0.1095	–
314.3 K	0.1095	–
314.83 K	–	7.05e-08
315.46 K	–	7.04e-08
316.05 K	–	7.06e-08
327.74 K	0.1061	–
328 K	0.1059	–
328.23 K	0.1058	–
328.77 K	–	6.82e-08
329.44 K	–	6.79e-08
330.02 K	–	6.78e-08

CCC(C)(C)C [2,2-dimethylbutane]
Conditions	thermal conductivity [W/m/K]	thermal diffusivity [m2/s]
257.48 K	0.1055	–
257.84 K	0.1053	–
258.3 K	0.1051	–
258.74 K	–	7.54e-08
259.62 K	–	7.49e-08
260.73 K	–	7.46e-08
271.49 K	0.1011	–
271.84 K	0.101	–
272.32 K	0.1008	–
272.79 K	–	7.16e-08
273.65 K	–	7.14e-08
274.78 K	–	7.08e-08
279.86 K	0.09854	–
280.24 K	0.09842	–
280.73 K	0.09822	–
281.17 K	–	6.94e-08
282.06 K	–	6.92e-08
283.23 K	–	6.85e-08
297.98 K	0.09321	–
298.42 K	0.09307	–
298.91 K	0.09289	–
299.31 K	–	6.48e-08
300.31 K	–	6.46e-08
301.44 K	–	6.41e-08
319.35 K	0.08745	–
319.75 K	0.08729	–
320.28 K	0.08709	–
320.72 K	–	6.03e-08
321.62 K	–	5.99e-08
322.83 K	–	5.95e-08

CC(C)C(C)C(C)C [2,3,4-trimethylpentane]
Conditions	thermal conductivity [W/m/K]	thermal diffusivity [m2/s]
259.06 K	0.1127	–
259.29 K	0.1126	–
259.54 K	0.1125	–
259.87 K	–	7.32e-08
260.45 K	–	7.32e-08
261.06 K	–	7.31e-08
277.95 K	0.1083	–
278.19 K	0.1082	–
278.44 K	0.108	–
278.74 K	–	6.91e-08
279.35 K	–	6.9e-08
279.93 K	–	6.87e-08
297.33 K	0.1036	–
297.58 K	0.1035	–
297.84 K	0.1033	–
298.16 K	–	6.57e-08
298.78 K	–	6.56e-08
299.4 K	–	6.54e-08
315.53 K	0.09948	–
315.77 K	0.09926	–
316.03 K	0.09916	–
316.35 K	–	6.19e-08
316.91 K	–	6.12e-08
317.54 K	–	6.12e-08
331.87 K	0.0958	–
332.13 K	0.09569	–
332.39 K	0.09551	–
332.69 K	–	5.9e-08
333.32 K	–	5.89e-08
333.91 K	–	5.84e-08

CCC(C)(C)CC [3,3-dimethylpentane]
Conditions	thermal conductivity [W/m/K]	thermal diffusivity [m2/s]
256.11 K	0.1116	–
256.71 K	0.1112	–
256.82 K	–	7.8e-08
257.04 K	0.1113	–
257.62 K	–	7.76e-08
258.25 K	–	7.71e-08
276.17 K	0.106	–
276.5 K	0.1058	–
276.78 K	0.1057	–
276.87 K	–	7.25e-08
277.64 K	–	7.2e-08
278.3 K	–	7.18e-08
296.01 K	0.1005	–
296.03 K	0.1006	–
296.39 K	0.1004	–
296.63 K	0.1002	–
296.64 K	–	6.59e-08
296.69 K	–	6.66e-08
297.52 K	–	6.68e-08
298.08 K	–	6.59e-08
316.38 K	0.09528	–
316.67 K	0.09499	–
316.93 K	0.09481	–
317.05 K	–	6.22e-08
317.7 K	–	6.09e-08
318.3 K	–	6.05e-08
333.75 K	0.09074	–
334.1 K	0.09063	–
334.37 K	0.09047	5.74e-08
335.16 K	–	5.76e-08
335.77 K	–	5.74e-08

CCCCC(C)C [2-methylhexane]
Conditions	thermal conductivity [W/m/K]	thermal diffusivity [m2/s]
256.24 K	0.1227	–
256.67 K	0.1226	–
257.02 K	0.1224	–
257.46 K	–	8.41e-08
258.65 K	–	8.33e-08
259.64 K	–	8.28e-08
275.56 K	0.1172	–
276 K	0.1168	–
276.39 K	0.1167	–
276.83 K	–	8e-08
278.06 K	–	7.86e-08
279.12 K	–	7.85e-08
296.46 K	0.1109	–
296.93 K	0.1106	–
297.4 K	0.1105	–
297.8 K	–	7.5e-08
299.08 K	–	7.43e-08
300.34 K	–	7.38e-08
317.4 K	0.1049	–
317.92 K	0.1047	–
318.35 K	0.1045	–
318.77 K	–	7.02e-08
320.16 K	–	6.96e-08
321.33 K	–	6.94e-08
337.1 K	0.09956	–
337.65 K	0.0992	–
338.11 K	0.09905	–
338.49 K	–	6.63e-08
339.91 K	–	6.52e-08
341.12 K	–	6.49e-08
